Results on 83 compounds are retold here after a melting point compilation (Tetko et al.; mined from patent text by program, amines drawn as free bases though some values may be those of a salt).

SMILES strings stand for the structures. Bounds are passed on as bounds.

`COc1ccc(-c2cc(=O)n(Cc3ccc(Cl)cc3Cl)nc2-c2ccc(OC)c(OC)c2)cc1` came in with a melting point of 119 to 120 °C.
As for `O=S(=O)(Oc1ccc2sccc2c1)c1ccccc1`, the melting point was in the range of 80 to 81 °C.
The compound `CC(C)COc1ccc(COc2ccc(CC(=O)O)cc2Cl)cc1Cl` came in with a melting point of 128 to 129 °C.
For `O=C(NC(=O)c1c(Cl)cccc1Cl)Nc1ccc(OC(F)(F)C(Cl)Cl)cc1`, the melting point lay in the range of 211 to 213 °C.
Compound `CCOC(=O)c1c(CN(CC)CC)nc2sc3c(c2c1-c1ccc(OC)c(OC)c1)CCN(C(=O)Nc1ccccc1)C3` had a melting point of 154 to 155 °C.
Compound `Cc1ccccc1-n1c(Cn2cnc3c(N)ncnc32)nc2cccc(C)c2c1=O` gave a melting point of 282 to 283 °C.
Next, `CCOC(=O)C(C#N)=CNc1nccc2c1CCCC2`: 116 to 120 °C.
Compound `Cc1nn(-c2ccccc2)c(O)c1-c1c(C)nn(-c2ccccc2)c1O` had a melting point above 280 °C.
Compound `Cn1cnc2c(=O)[nH]c(N)nc21` displayed a melting point above 300 °C.
`CN1CCN(c2c(F)cc3c(=O)c(C(=O)O)cn4c3c2N(C)CC4)CC1` returned a melting point of 266 to 269 °C.
`C=CC(=O)NC(=O)NC(=O)CCl` gave a melting point of 144 to 145 °C.
`N#CCOC(=O)c1cccnc1SCC#N` yielded a melting point of 140 to 143 °C.
`O=C1CC(O)CC(C=Cc2c3c(nn2-c2ccc(F)cc2)C(Cc2ccccc2)CCC3)O1` (racemic) displayed a melting point of 185 to 187 °C.
Under `CCCCNC(=O)COC1c2ccccc2C(=O)N1c1ccc2ccc(OC)nc2n1` (stereo not drawn) stands 170 °C.
Under `O=C(O)c1cnc(Cn2cc(C3c4ccccc4C=Cc4ccccc43)c(=S)[nH]c2=O)s1` stands 198 to 200 °C; under `CC(C)COC(=O)Nc1ccc(Sc2c(O)c3c(Cl)cc(Cl)cc3[nH]c2=O)cc1`, above 300 °C; under `CCOC(=O)c1cc(-c2cn(Cc3ccccc3C#N)c(=O)n2-c2ccc(F)cc2)ccn1`, 164 °C.
Compound `COc1c(NC(=O)c2ccc(Br)cc2)cccc1[N+](=O)[O-]` had a melting point of 162 to 163 °C.
Under `COc1ccc(C(C)(O)c2cc(OCc3ccccc3)ccc2OC)cn1` (stereo not drawn) stands 53 to 54 °C; under `Clc1ccc(Cc2cccnn2)c(Cl)c1`, 67 to 69 °C; under `O=c1ccn(-c2cccc(C(F)(F)F)c2)nc1-c1ccnn1CC1CC1`, 155 to 157 °C.
For the compound `OC[C@H](O)COc1ccccc1OCC1CC1`, the melting point fell in the range of 95 to 97 °C.
As to `CC(=O)Sc1cc(-c2ccc(C(F)(F)F)n(C)c2=O)c(F)cc1Cl`, the melting point lay in the range of 91 to 92 °C.
Regarding `CC(=O)Nc1ccccc1NC(=O)CN1C(=O)c2ccccc2C1=O`, the melting point turned out to be 270 °C.
Consider `O=C(c1cn(Cc2ccccc2Cl)nn1)N1CCCCC1`, for which the melting point was 141 to 142 °C.
Regarding `O=C1N(Cc2ccc(Cl)s2)c2ccc(F)cc2C12COc1cc3c(cc12)OCO3` (stereo not drawn), the melting point lay within 142 to 144 °C.
On to `C#CCn1c(=O)n(C(C)C)c2ccc(-c3ncc(C(F)(F)F)cc3Cl)cc21`, for which the melting point is 109 to 111 °C.
For the compound `Cc1cc(CN2CCN(c3nc(C)c(C(=O)NCc4cccnc4)s3)C2=O)no1`, the melting point lay in the range of 185 to 188 °C.
`CCCCCCCCNc1c(Nc2ccc(CC(C)NC[C@H](O)COc3ccccc3)cc2)c(=O)c1=O` (stereo partly drawn) came in with a melting point of 146 to 155 °C.
The compound `CCOC(=O)c1c(Cn2cnnc2)nc2cc(OC)c(OC)cc2c1-c1ccc(OC)cc1` gave a melting point of 218 to 219 °C.
For the compound `CCCCC(Cc1ccc(OCCNC(=O)c2ccc(-c3cccc(O)c3)cc2)cc1)C(=O)O` (stereo not drawn), the melting point lay in the range of 98 to 100 °C.
Under `Cc1cc(OCC(=O)O)cc(C)c1SCc1sc(-c2ccc(C(F)(F)F)cc2)nc1C` stands 184 to 185 °C; under `COCCc1ccc(OCC(O)CN2CCC(N3CCCNC3=O)CC2)cc1` (stereo not drawn), 113 to 115 °C; under `CC(O)c1ccc(-c2ccc(S(C)(=O)=O)cc2)o1` (stereo not drawn), 118 to 120 °C.
Regarding `COc1ccc(CC(NC(=O)OC(C)(C)C)C(=O)O)cc1` (stereo not drawn), the melting point was in the range of 94 to 96 °C.
Under `C=CCOc1nc(N(CC)Cc2cc(Br)ccc2OCc2ccccc2)ccc1C(=O)O` stands 129 to 131 °C; under `CC(C)[C@H](NC(=O)N(C)Cc1ccccn1)C(=O)N[C@@H](Cc1ccccc1)C[C@H](O)[C@H](Cc1ccccc1)NC(=O)[C@@H](NC(=O)N(C)Cc1ccccn1)C(C)C`, 92 to 96 °C.
`COCc1cc(Oc2c(Cl)cc(C(F)(F)F)cc2Cl)n[nH]1` yielded a melting point of 141 to 143 °C.
The compound `COc1cc(OC)nc(NC(=O)NS(=O)(=O)c2c([N+](=O)[O-])ccc3c2CCC3)n1` gave a melting point of 162 to 172 °C.
The compound `Cc1oc(-c2ccccc2)nc1CCOc1ccc(C[C@H](NC(=O)C(F)=Cc2ccccc2)C(=O)O)cc1Br` yielded a melting point of 243 to 245 °C.
The compound `COc1cc2ncnc(N3CCN(C(=O)NCCc4ccc(Br)cc4)CC3)c2cc1OC` had a melting point of 174 to 175 °C.
The compound `NS(=O)(=O)c1ccc(-c2[nH]c3ccc(Br)cc3c2-c2ccccc2)cc1` registered a melting point of 310 to 312 °C.
`CCC(=O)N(C(=O)CC)c1nnc2c3c(c(N4CCCCC4)nn12)CCCC3` came in with a melting point of 128 to 129 °C.
Regarding `Fc1cc(F)c(-c2cncn2-c2ccc(Cl)cc2)c(F)c1`, the melting point was in the range of 170 to 172 °C.
Consider `CCc1cc(C2(c3cccc(-c4cccnc4F)c3)N=C(N)N3CCCN=C32)cc(CC)n1` (stereo not drawn), for which the melting point is 174 to 176 °C.
Consider `O=C(Nc1ccc(C(=O)N2Cc3ccccc3Cc3ccccc32)cn1)c1ccccc1-c1ccccc1`, for which the melting point is 134 to 142 °C.
As for `Nc1nc2c(ncn2COCC=O)c(=O)[nH]1`, the melting point was 350 °C.
Under `C(=C(\C(=C\c1ccccc1)c1ccccc1)c1ccccc1)/c1ccccc1` stands 183 to 184 °C; under `N#Cc1ccc(Cn2cncn2)cc1-c1ccc(OS(N)(=O)=O)c(Cl)c1`, 133 to 136 °C; under `Nc1nc(N)nc(-c2ccc3c(c2)OC(F)(F)C(F)(F)O3)n1`, 176 to 179 °C.
`O=[N+]([O-])c1c(C(F)(F)F)cc(OCc2ccccc2)cc1C(F)(F)F` returned a melting point of 141 to 143 °C.
Under `O=C(NCc1ccc2cc(O)ccc2c1)c1cc(-c2ccc(Cl)cc2)oc1C(F)(F)F` stands 189 to 191 °C.
`CC(C)n1cc(I)c2c(Cl)ncnc21`: the melting point lay within 116 to 118 °C.
The compound `O=C(O)CC[C@@H](Cc1cn(CCCc2ccccc2)c2ccccc12)NC(=O)CCCCCCc1ccccc1` gave a melting point of 100 to 102 °C.
Under `Cc1nnc(-c2ccc3occ(-c4cnn(Cc5ccccc5C(F)(F)F)c4)c3c2)o1` stands 165 to 166 °C; under `Cc1cc(-c2cccnc2)n2ncc(C(=O)c3ccccc3)c2n1`, 196 to 198 °C; under `CC(=O)Nc1c([N+](=O)[O-])cc([N+](=O)[O-])c2c1CCCC2`, 203 °C.
As to `CNC(=O)Nc1ccc2c(c1)C(C)(N)c1c-2[nH]c(=O)c2nccn12` (stereo not drawn), the melting point stood at 200 °C.
`CC(=O)Nc1nc2c(Oc3cc(N4CCN([C@H](C)c5ccc(F)cc5)CC4)ncn3)cccc2s1` had a melting point of 244 to 246 °C.
`O=C(O)CCCn1nc(-c2c(-c3ccccc3)nn3ccccc23)ccc1=O` registered a melting point of 240 °C.
`COc1cc2c(cc1OC)CN(CCCNS(=O)(=O)c1cc(Cl)c(F)cc1F)CC2`: the melting point is 110 to 112 °C.
Next, `CC(C)(C)c1noc(-c2cnc(Cl)c(Cl)c2)n1`: 98 to 101 °C; `COC(=O)COc1ccc(C(C)=O)c(C)c1`: 49 to 50 °C; `COC(=O)C1CCC(=O)c2c(-c3ccc(Cl)cc3)noc2C1` (stereo not drawn): 108 to 109 °C.
In turn, `Cc1ccc(C(CCN2CCCC2)c2ncc[nH]2)cc1` (stereo not drawn) displayed a melting point of 125 to 127 °C.
`CCOC(=O)/C=C/c1cn(C)nc1OCc1ccc(OCc2nc(-c3ccco3)oc2C)c(OC)c1` displayed a melting point of 135 to 136 °C.
The compound `CCCCNc1nc2cccc(C(=O)OC)c2n1Cc1ccc(-c2ccccc2-c2nnn[nH]2)cc1` gave a melting point of 163 to 167 °C.
For `CCOC(=O)c1c(CS(=O)c2nc3ccccc3[nH]2)nc2cc(OC)c(OC)cc2c1-c1ccc(OC)c(OC)c1` (stereo not drawn), the melting point is 160 to 161 °C.
`C[Si](C)(C)c1ccc2cc(C(=O)Nc3ccc(N4CC(O)C4)nc3)n(Cc3cccc(F)c3)c2c1` came in with a melting point of 188 to 189 °C.
As for `COc1nc(C)c(C)cc1NC(=S)N1CCN(c2cc(C)cc(C)c2)CC1`, the melting point lay in the range of 192 to 193 °C.
Compound `CCOC(=O)CN1CCN(c2cccc(C3=NC(C)(C)Cc4cc(OC)c5c(c43)CC(C)(C)O5)c2)S1(=O)=O` came in with a melting point of 153 to 155 °C.
Consider `C[C@H](c1ccccc1)n1c(=O)c2c(N3CCN(C)CC3)cc(Cl)cc2n(Cc2ccccc2)c1=O`, for which the melting point lay within 108 to 115 °C.
In turn, `COc1cc(C(=O)NC2CCN(C)CC2)ccc1Nc1ncc2c(n1)N(C1CCCC1)CC(F)(F)C(=O)N2C` came in with a melting point of 241 to 243 °C.
For the compound `O=C1Nc2ccccc2S(=O)(=O)c2cc(C(F)(F)F)ccc21`, the melting point was in the range of 240 to 241 °C.
Compound `COc1ccc(-c2nc(C(O)C(F)(F)F)[nH]c2-c2ccc(OC)cc2)cc1` (stereo not drawn) gave a melting point of 242 to 245 °C.
For the compound `Cn1nc(-c2ccc(Cl)cc2)cc1N=Cc1ccsc1`, the melting point was 130 °C.
Turning to `CC(=O)OCC(COCn1cnc2c(=O)[nH]c(N)nc21)OC(C)=O` (stereo not drawn), the melting point was in the range of 222 to 224 °C.
`CCN(CC)CCNC(=O)c1cc(Cl)c(NS(=O)(=O)c2ccc3ccccc3c2)cc1OC` returned a melting point of 148 to 149 °C.
On to `CCCCc1nn2ccccc2c1C(=O)c1ccc(C#N)cc1`, for which the melting point came out at 116 °C.
`O=C(COc1cc(N2C(=O)C3=C(CCCC3)C2=O)c(F)cc1Cl)OCc1nc[nH]n1` showed a melting point of 151 to 154 °C.
For `Cn1c(S)nnc1C(O)(c1ccc(Cl)cc1)c1cc2c3c(c1)c(-c1cccc(Cl)c1)cc(=O)n3CO2` (stereo not drawn), the melting point was 193 °C.
Under `COc1nc(C)cnc1NS(=O)(=O)c1cccnc1-c1ccc(OCc2ccc(C(=O)O)cc2)cc1` stands 204 to 205 °C.
`COCc1nc2c(NCc3c(C)cccc3C)cc(C(=O)NCCO)cc2n1C` came in with a melting point of 186 to 187 °C.

By melting point is commonly meant the temperature of the solid-liquid transition.
